The numbers were not newly measured in patent US20160000762A1, “IMPROVING COGNITIVE FUNCTION” (THE REGENTS OF THE UNIVERSITY OF CALIFORNIA, priority 2013, published 2016), which cites them from elsewhere.

The subject of the series is Aβ. To be noted: after traumatic brain injury; Loane et al., 2009; cited from earlier work.

As for `C[C@H](NC(=O)Cc1cc(F)cc(F)c1)C(=O)N[C@H](C(=O)OC(C)(C)C)c1ccccc1` [DAPT], the Aβ levels entry is “decreased” and the behavioral performance result is “improved”.
